Data: patent US20100048671A1, “INHIBITION OF THE 44 KILODALTON ISOFORM OF PIM-1 KINASE RESTORES APOPTOSIS INDUCED BY CHEMOTHERAPEUTIC DRUGS IN CANCER CELLS” (priority 2005, published 2010)
Like-named read-outs stand apart in the source and are kept apart here.

Tests used:
Assay type in all cases: cell-based, human
MCF7-MX cells = assay: Drug sensitivity (WST-1) of MCF7-MX cells infected with lenti-virus encoding Pim-1 SiRNA; settings: Flavopiridol (15 μM) or DTX (50 μM), 2 days
Experimental: FIG. 11A: MCF7-MX cells infected with lenti-virus encoding vector control and Pim-1 SiRNA were treated with Flavopiridol (15 μM) or DTX (50 μM) as indicated for 2 days. Cell viability was determined using the WST-1 assay. P<0.05 FIG. 11B: expression levels of Pim-1, BCRP and actin analyzed by immunoblotting with the respective antibodies.
(§1) The phosphorylation of BCRP is therapeutically significant because it […] BCRP from causing resistance to chemotherapeutic agents. […] Downregulating Pim-1L expression by a specific siRNA also sensitized the prostate cancer cell line CWR-R1 to apoptosis induced by the chemotherapeutic agents mitoxantrone, topotecan and docetaxel (FIG. 12). The siRNA target sequence for inhibiting Pim-1L expression used to inhibit Pim-1L expression is sequence is: 5′ GCAGGACAGUGCUUGAUAC 3′ identified as SEQ ID NO. 3, as is described in a previous study (29, the entire contents of which is hereby incorporated by reference as if fully set forth herein). This siRNA is targeted at nucleotides 1540-1558 of SEQ ID NO. 1.

Pim-1L = assay: Threonine phosphorylation of endogenous BCRP after Pim-1 siRNA (immunoprecipitation with anti-BCRP, immunoblotting with anti-phosphothreonine); settings: MCF7/MX cells; lenti-virus encoded siRNA vs vector control
Source text: MCF7-MX cell lysates infected with lenti-virus encoding Vector control and Pim-1 SiRNA(SiPim-1) were subjected to immunoprecipitation with monoclonal BCRP antibody, followed by immunoblotting with anti-phosphothreonine (αpThr).
as §1
The transfected cells were lysed in the buffer (20 mM TrisHCl pH 7.4, 150 mM NaCl, 1 mM EDTA, 1 mM EGTA, 1% Triton X-100, 1 mM Na3VO4, 1 mg/ml aprotinin, 1 mg/ml leupterin and 1 mM PMSF). Insoluble material was removed by centrifugation, and antibodies were added to lysates and incubated for 1-3 hour at 4° C. […]

[1] = system: LNCaP cells over-expressing BCRP; assay: Drug sensitivity (WST-1) of LNCaP cells over-expressing BCRP infected with lenti-virus encoding Pim-1 SiRNA; settings: MX (0.5 μM) or TPT (0.1 μM), 2 days
Experimental: FIG. 13A: LNCaP cells infected with lenti-virus encoding vector control, BCRP, Pim-1SiRNA or both were treated with the indicated drugs MX (0.5 μM) or TPT (0.1 μM) for 2 days. Cell viability was determined using the WST-1 assay FIG. 13B: Immunoprecipitation was performed by using anti-BCRP.

CWR-R1 cells = assay: Drug sensitivity (WST-1) of CWR-R1 cells infected with lenti-virus encoding Pim-1 SiRNA; settings: mitoxantrone (2 μM), topotecan (5 μM) or docetaxel (50 nM), 2 days
Experimental: FIG. 12A: CWR-R1 cells infected with lenti-virus encoding vector control and Pim-1 SiRNA were treated with MX (2 μM), TPT (5 μM) or DTX (50 nM), respectively for 2 days. Cell viability was determined using the WST-1 assay. FIG. 12B: immunoprecipitation performed by using anti-BCRP.
as §1

LNCaP cells [2] = assay: Drug sensitivity assay (WST-1 cell viability) of lenti-virus infected LNCaP cells treated with doxorubicin; settings: for viability at 0.1 µg/mL: Homo sapiens, LNCaP, read-out: cells remained viable
Experimental: FIG. 5A: LNCaP cells infected with lenti-virus encoding Flag-Pim-1S, Pim-1L, Pim-1LKM (kinase-deficient mutant) or vector control were treated with doxorubicin (0.1 ug/ml) for the times as indicated. Cell viability was determined by the WST-1 assay. The data were expressed as the mean of triplicates of the doxorubicin-treated samples relative to the untreated controls. * p<0.01 compared with the vector control. The expression of the Pim-1 proteins encoded by the lenti-viruses was determined by immunoblotting with anti-Flag antibody. […] The response to doxorubicin was determined at 20 hour as above. * p<0.01 compared with the vector control; ** p<0.01 compared with Pim-1L alone. Expression of Flag-Pim-1L and T7-EtkKQ was monitored by immunoblotting with anti-Flag and anti-T7 antibody, respectively. FIG. 5C: LNCaP cells infected with the lenti-viruses encoding the indicated proteins as in 5A were treated with 10-100 nM mitoxantrone for 48 h; cell viability was determined as in 5A. * p<0.01 compared with the vector control. FIG. 5D: Etk mediates Pim-1L-induced resistance to mitoxantrone. LNCaP cell were infected with the lenti-viruses and the mitoxatrone response was determined. * p<0.01 compared with the vector control; ** p<0.01 compared with Pim-1L alone. […] LNCaP cells were transfected with the plasmids as indicated. The association of Etk with p53 was determined by immunoprecipitation with anti-p53 and followed by immunoblotting with anti-T7 antibody. The expression of p53, Etk or Pim-1 in these cells was monitored by immunoblotting with anti-p53, anti-T7 and anti-Flag antibody, respectively.
An increase of Etk activity confers drug resistance to apoptosis caused by chemotherapeutic agents in LNCaP cells (20), including doxorubicin and cisplatin. By contrast, P53 binding to Etk decreases Etk activity permits apoptosis. However, the mechanism by which Etk is activated was not known. […] As is shown in FIG. 5A, treatment of LNCaP cells with doxorubicin induced rapid apoptosis as was expected. […] Over-expression of Pim-1S conferred some initial protection against drug-induced apoptosis with about 80% cell survival at 20 h. However, such protection was not sustained until 40 hours. […] In this experiment, LNCaP cells were infected with Lenti-virus encoding Flag-Pim-1 S, Pim-1L, Pim-1LKM (kinase-deficient mutant) or vector control for 24h.
LNCaP cells were infected with the lentiviruses encoding the proteins as indicated by using the protocol described previously (19). At 48 hour post-infection, the cells were seeded into the 96 well plates (3×10^4/well). Doxorubicin or mitoxantrone was added in the medium after 24 h. The effects of doxorubicin on the viability of cells were measured after 20-48 hour by the WST-1 assay (Roche Molecular Biochemicals). The viability rates are expressed as means±SD of the triplicate for each experiment. An aliquot of cells was lysed and followed by immunoblotting with anti-T7 or anti-Flag to monitor the transfection efficiency.

LNCaP cells [3] = assay: Induction of Pim-1 expression by IL-6 (immunoblotting with monoclonal anti-Pim-1 antibody); settings: serum starved LNCaP cells; 25 ngml IL-6, 24 hour, 37 degrees
Source text: FIG. 1A: Induction of Pim-1 expression by IL-6 in LNCaP cells. FIG. 1B: The effects of neutralizing antibody against IL-6 on the protein level of Pim-1 in PC3 cells. FIG. 1C: Expression of the two isoforms of Pim-1 by the EST clones in transfected LNCaP, 22Rv1 and PC3 cells FIG. 1D: The N-terminal unique sequence in human 44 kD Pim-1. Part of the sequence of the 5′ end of Pim-1 cDNA in the EST clones is shown. The putative alternative translation initiation site CUG and the start codon AUG are in boldface. FIG. 1E: Alignment of the unique N-terminal sequence in the 44 kD Pim-1 from human and mouse origins. Proline-rich motifs are underlined and bold. The translation initiation sites of the two isoforms are shown by arrows.
Induction of Pim-1 expression by IL-6 was assessed in serum starved LNCaP cells that were treated with 25 ngml IL-6 for 24 hour at 37 degrees. The level of Pim-1 protein was examined by immunoblotting with a monoclonal anti-Pim-1 antibody (Top). The same blot was then probed with anti-actin to monitor the sample loading (Bottom). […] One embodiment of the present invention is directed to the isolated human 44 kD isoform identified by SEQ ID NO. 4 or a functional equivalent or variant thereof and its use in screening assays. We are the first to isolate and describe the gene for the 44 kD isoforms identified in SEQ ID NO. […]

## 5′ GCAGGACAGUGCUUGAUAC 3′ (lentivirus encoded, further chemistry not given here; listed as Homo sapiens) [siRNA, 1, lenti-virus encoded]
MCF7-MX cells
  BCRP-mediated drug resistance: inhibited BCRP-mediated drug resistance
Pim-1L
  phosphorylation of BCRP: significantly reduced
[1]
  BCRP-mediated resistance to mitoxantrone and topotecan: able to reduce or compromise BCRP-mediated resistance
CWR-R1 cells
  sensitivity to apoptosis induced by chemotherapeutic agents: sensitized

## COc1cccc2c1C(=O)c1c(O)c3c(c(O)c1C2=O)C[C@@](O)(C(=O)CO)C[C@@H]3O[C@H]1C[C@H](N)[C@H](O)[C@H](C)O1 [doxorubicin]
LNCaP cells [2]; 20 h
  viability at 0.1 µg/mL: ~50%
LNCaP cells [2]; 40 h
  viability at 0.1 µg/mL: > 70%
LNCaP cells [2]; LNCaP cells expressing Pim-1L, doxorubicin 0.1 ug/ml, 20 hours post-treatment
  apoptotic cells detected: Virtually no apoptotic cells were detected
LNCaP cells [2]; LNCaP cells expressing the empty vector or kinase-inactive Pim-1LKM, doxorubicin 0.1 ug/ml, 40 hour treatment
  cells that survived: 20%
LNCaP cells [2]; LNCaP cells over-expressing Pim-1S, doxorubicin 0.1 ug/ml, 20 h
  cell survival: about 80%

## IL-6: interleukin 6, cytokine used to induce Pim-1 expression
LNCaP cells [3]
  expression of the 44 kD Pim-1 protein: induced
